The values that follow are results of earlier work, collected in EP3731816B1, “SOLID ORAL PHARMACEUTICAL COMPOSITIONS COMPRISING APIXABAN” (Sanovel Ilac Sanayi ve Ticaret A.S., priority 2017, dated 2019).

The structures appear in SMILES notation. ≈ marks a conversion by molar mass, not a printed value.

For data set [1] the following is noted: at 24 °C.
For data set [2] the following is noted: single 10 mg dose.

Turning to `COc1ccc(-n2nc(C(N)=O)c3c2C(=O)N(c2ccc(N4CCCCC4=O)cc2)CC3)cc1` [Apixaban, 1-(4-methoxyphenyl)-7-oxo-6-[4-(2-oxopiperidin-1-yl)phenyl]-4,5,6,7-tetrahydro-1H-pyrazolo[3,4-c]pyridine-3-carboxamide], the solubility in water in data set [1] was 28 µg/mL (≈ 60.9 µM). Also, the oral bioavailability result in data set [2] is “about 50%”.
